Where two headings read alike, the source gives them in different places.
Tests used:
[1] = Drug substance description (solubility, hygroscopicity); format: physicochemical
From the text: Bepotastine besilate is a white to off-white, odorless, crystalline powder. The bepotastine drug substance physiological mode of action is inhibition of histamine H1 receptors to relieve typical symptoms associated with allergic rhinitis. […] Fluticasone propionate is a white to off-white, crystalline synthetic trifluorinated corticosteroid used to treat inflammatory symptoms related to asthma and allergic rhinitis.

[2] = Chemical stability studies at 25° C. and 40° C. in amber glass bottles; format: physicochemical
Description: Chemical stability studies were performed to determine if the formulation would likely achieve a commercially practical shelf-life. Studies were performed at 25° C. and 40° C. in moisture impermeable amber glass bottles.

[3] = cited from earlier work
[4] = system: microorganisms; experiment: USP 51 Preservative Efficacy Test (overall outcome); format: cell-based; conditions: BAK at a concentration of 0.200 mg/mL
From the text: The term “preservative efficacy” or “preservative effectiveness” or “antimicrobial efficacy”, as used herein, means that the composition satisfies USP standards as defined in protocol <51> p. 1681, United States Pharmacopeia, 1995: Antimicrobial effectiveness testing; The United States Pharmacopeia, 32nd rev ed., and the National Formulary, 27th ed. Rockville, Md.: USPC; 2009. For example, the preservative is effective in the product examined if (a) the concentrations of viable bacteria are reduced to not more than 0.1% of the initial concentrations by the fourteenth day; (b) the concentrations of viable yeasts and molds remain at or below the initial concentrations during the first 14 days; and (c) the concentration of each test microorganism remains at or below these designated levels during the remainder of the 28-day test period. Similar criteria are defined for BP standards (Efficacy of Antimicrobial Preservation, Appendix XVI C, 1995), and PhEur standards (Efficacy of Antimicrobial Preservation, Chapter VIII. 14, 1992).
The compositions provided herein may include an effective amount of an antimicrobial preservative. Preservatives can be used to inhibit microbial growth (e.g., bacterial or yeast) in the compositions. An “effective amount” of a preservative is that amount necessary to prevent the growth of microorganisms in the composition. […]

In the case of O=C(O)CCCN1CCC(O[C@@H](c2ccc(Cl)cc2)c2ccccn2)CC1.O=S(=O)(O)c1ccccc1 [Bepotastine besilate, (+)-(S)-4-[4-[(4-chlorophenyl)(2-pyridyl)methoxy]piperidino]butyric acid], the hygroscopicity ([1]; drug substance powder) is reported as “non-hygroscopic” and the “dissolution in the nasal spray formulation vehicle” value ([1]; nasal spray formulation vehicle) is reported as “dissolves readily”.

For O=C(O)CCCN1CCC(O[C@@H](c2ccc(Cl)cc2)c2ccccn2)CC1 [Bepotastine, (+)-(S)-4-[4-[(4-chlorophenyl)(2-pyridyl)methoxy]piperidino]butyric acid], the “impurities found during stability evaluation” value [2] was “only impurity found was the ethyl ester precursor of bepotastine”.

For CCC(=O)O[C@]1(C(=O)SCF)[C@H](C)C[C@H]2[C@@H]3C[C@H](F)C4=CC(=O)C=C[C@]4(C)[C@@]3(F)[C@@H](O)C[C@@]21C [fluticasone propionate, Fluticasone propionate], the solubility in water [3] is listed as “practically insoluble” and the solubility in water ([3]; listed as fluticasone) is listed as “insoluble”.

For benzalkonium chloride [BAK], the effectiveness as preservative [4] was “effective preservative”.

Source: patent publication US10736841B2, “Bepotastine compositions” (BAUSCH & LOMB INCORPORATED, priority 2011, dated 2020)
